According to patent US9421209B2, “Kinase modulators” (Rhizen Pharmaceuticals SA, priority 2009, dated 2016):
Like-named read-outs stand apart in the source and are kept apart here.

What was measured:
P110 δ/Pi3K δ = P110 δ/Pi3K δ (Homo sapiens, UniProt O00329); experiment: Fluorescent (HTRF) determination of PI3K enzyme activity, δ isoform; assay type: biochemical; parameters: inhibition: dose or concentration left out as unconfirmed
Method in brief: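 IC50 fitted from percent inhibition relative to blank and enzyme-only wells. Human PI3Kδ converts PIP2 to PIP3 after addition of 400 μM ATP solution, 30 min at room temperature. Product read by time-resolved FRET after stop and 6–18 h dark incubation with detection reagents.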

P110α = P110α (Homo sapiens, UniProt P42336); experiment: Fluorescent (HTRF) determination of PI3K enzyme activity, α isoform; assay type: biochemical
Chain of P110α (P42336 whole entry, canonical isoform): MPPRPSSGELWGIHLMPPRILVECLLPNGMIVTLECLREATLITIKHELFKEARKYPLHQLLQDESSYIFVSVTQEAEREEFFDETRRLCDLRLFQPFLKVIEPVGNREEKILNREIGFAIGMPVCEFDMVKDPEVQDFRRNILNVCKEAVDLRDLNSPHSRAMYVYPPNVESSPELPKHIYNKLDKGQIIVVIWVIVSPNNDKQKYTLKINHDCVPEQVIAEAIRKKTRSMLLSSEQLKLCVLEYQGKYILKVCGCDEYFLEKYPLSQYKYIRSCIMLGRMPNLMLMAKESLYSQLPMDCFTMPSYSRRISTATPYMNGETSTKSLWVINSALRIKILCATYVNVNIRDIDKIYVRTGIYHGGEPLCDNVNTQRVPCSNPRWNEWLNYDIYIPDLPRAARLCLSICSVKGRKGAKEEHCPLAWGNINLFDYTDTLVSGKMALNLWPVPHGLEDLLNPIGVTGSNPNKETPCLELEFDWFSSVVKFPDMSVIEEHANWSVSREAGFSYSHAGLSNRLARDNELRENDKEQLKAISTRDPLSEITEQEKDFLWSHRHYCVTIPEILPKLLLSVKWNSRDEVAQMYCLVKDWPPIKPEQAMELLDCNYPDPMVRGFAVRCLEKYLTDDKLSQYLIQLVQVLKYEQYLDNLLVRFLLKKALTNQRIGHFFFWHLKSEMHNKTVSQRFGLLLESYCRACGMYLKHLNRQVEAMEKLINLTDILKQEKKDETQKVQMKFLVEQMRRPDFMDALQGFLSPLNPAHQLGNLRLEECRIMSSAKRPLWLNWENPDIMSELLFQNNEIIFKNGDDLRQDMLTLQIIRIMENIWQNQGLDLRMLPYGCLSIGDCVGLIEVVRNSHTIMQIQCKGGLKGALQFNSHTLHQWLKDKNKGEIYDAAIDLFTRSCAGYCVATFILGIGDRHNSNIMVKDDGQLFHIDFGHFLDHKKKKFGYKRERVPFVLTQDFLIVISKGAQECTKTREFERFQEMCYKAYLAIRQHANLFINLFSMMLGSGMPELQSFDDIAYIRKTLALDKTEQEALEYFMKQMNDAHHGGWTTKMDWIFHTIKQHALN
Chain of P110α (P27986 whole entry partner, canonical isoform): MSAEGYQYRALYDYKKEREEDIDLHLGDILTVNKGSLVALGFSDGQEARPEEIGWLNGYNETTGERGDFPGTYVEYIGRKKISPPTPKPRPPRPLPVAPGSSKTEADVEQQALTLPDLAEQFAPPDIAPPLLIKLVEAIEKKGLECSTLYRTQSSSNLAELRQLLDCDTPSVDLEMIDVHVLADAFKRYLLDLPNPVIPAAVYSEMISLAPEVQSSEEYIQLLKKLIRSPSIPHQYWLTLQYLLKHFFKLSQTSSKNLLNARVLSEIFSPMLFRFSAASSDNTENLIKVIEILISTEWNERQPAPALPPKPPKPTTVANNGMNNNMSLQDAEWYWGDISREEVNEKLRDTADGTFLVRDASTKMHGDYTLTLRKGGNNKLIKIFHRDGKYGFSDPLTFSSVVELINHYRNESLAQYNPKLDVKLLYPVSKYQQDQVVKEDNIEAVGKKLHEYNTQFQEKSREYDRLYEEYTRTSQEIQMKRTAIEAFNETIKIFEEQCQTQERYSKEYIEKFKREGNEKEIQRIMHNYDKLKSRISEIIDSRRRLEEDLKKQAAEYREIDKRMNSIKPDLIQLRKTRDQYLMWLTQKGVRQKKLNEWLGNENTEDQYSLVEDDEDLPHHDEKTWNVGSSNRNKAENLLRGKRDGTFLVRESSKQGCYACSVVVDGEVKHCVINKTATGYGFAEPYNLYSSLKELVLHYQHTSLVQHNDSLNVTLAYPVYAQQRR
From the text: (§1) Assay 1: Fluorescent determination of PI3Kinase Kinase enzyme activity
(§2) Phosphoinositide 3 kinases (PI3K) belong to a class of lipid kinases that play a critical role in the regulation of several key cellular processes. The PI3K are capable of phosphorylating the 3-hydroxy position of phosphoinositols thereby generating second messengers involved in downstream signalling events. The homogenous time resolved fluorescence (HTRF) assay allows detection of 3,4,5-triphosphate (PIP3) formed as a result of phosphorylation of phosphotidylinositol 4,5-biphosphate (PIP2) by PI3K isoforms such as α, β, γ or δ.
(§3) PI3K isoform activity for α, β, γ or δ was determined using a PI3K human HTRF™ Assay Kit (Millipore, Billerica, Mass.) with modifications. All incubations were carried out at room temperature. Briefly, 0.5 μl of 40× inhibitor (in 100% DMSO) or 100% DMSO were added to each well of a 384-well black plate (Greiner Bio-One, Monroe, N.C.) containing 14.5 μl 1× reaction buffer/PIP2 (10 mM MgCl2, 5 mM DTT, 1.38 μM PIP2) mix with or without enzyme and incubated for 10 min. After the initial incubation, 5 μl/well of 400 μM ATP was added and incubated for an additional 30 minutes. Reaction was terminated by adding 5 μl/well stop solution (Millipore, Billerica, Mass.). Five microliters of detection mix (Millipore, Billerica, Mass.) were then added to each well and was incubated for 6-18 h in the dark. HRTF ratio was measured on a microplate reader (BMG Labtech., Germany) at an excitation wavelength of 337 nm and emission wavelengths of 665 and 620 nm with an integration time of […]. Data were analyzed using Graphpad Prism (Graphpad software; San Diego Calif.) for IC50 determination. Percent inhibition was calculated based on the values for the blank and enzyme controls. The results are provided below in Table 2 & 3.

P110β = P110β (Homo sapiens, UniProt P42338); experiment: Fluorescent (HTRF) determination of PI3K enzyme activity, β isoform; assay type: biochemical
Chain of P110β (P42338 whole entry, canonical isoform): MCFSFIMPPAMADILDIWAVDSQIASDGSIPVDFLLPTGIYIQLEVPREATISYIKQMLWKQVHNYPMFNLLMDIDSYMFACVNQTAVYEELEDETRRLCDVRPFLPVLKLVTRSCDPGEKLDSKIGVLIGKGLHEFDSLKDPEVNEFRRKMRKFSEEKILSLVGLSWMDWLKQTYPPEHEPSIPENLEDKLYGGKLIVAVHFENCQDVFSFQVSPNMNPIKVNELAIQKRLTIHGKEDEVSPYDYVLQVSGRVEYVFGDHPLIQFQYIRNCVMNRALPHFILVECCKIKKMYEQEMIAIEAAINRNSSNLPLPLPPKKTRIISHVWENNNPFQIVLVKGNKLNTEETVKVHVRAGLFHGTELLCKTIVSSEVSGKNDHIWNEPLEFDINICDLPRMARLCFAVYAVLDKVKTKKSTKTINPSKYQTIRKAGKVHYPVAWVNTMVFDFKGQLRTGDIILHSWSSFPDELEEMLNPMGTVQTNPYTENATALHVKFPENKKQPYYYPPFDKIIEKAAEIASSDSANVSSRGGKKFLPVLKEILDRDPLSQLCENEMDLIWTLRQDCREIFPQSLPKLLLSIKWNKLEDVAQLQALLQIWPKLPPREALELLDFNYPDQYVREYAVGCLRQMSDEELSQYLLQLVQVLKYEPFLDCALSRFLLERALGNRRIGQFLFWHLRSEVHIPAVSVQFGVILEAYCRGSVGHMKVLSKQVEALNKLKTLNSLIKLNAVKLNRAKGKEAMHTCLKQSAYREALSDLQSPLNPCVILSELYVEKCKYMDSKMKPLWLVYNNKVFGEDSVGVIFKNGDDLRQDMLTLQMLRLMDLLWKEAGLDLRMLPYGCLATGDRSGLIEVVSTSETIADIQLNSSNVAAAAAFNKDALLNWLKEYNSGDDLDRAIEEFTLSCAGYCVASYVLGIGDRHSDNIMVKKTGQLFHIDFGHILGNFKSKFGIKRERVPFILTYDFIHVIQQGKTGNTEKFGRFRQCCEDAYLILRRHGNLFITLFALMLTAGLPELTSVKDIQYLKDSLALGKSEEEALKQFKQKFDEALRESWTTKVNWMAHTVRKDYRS
Chain of P110β (P27986 whole entry partner, canonical isoform): as the sequence (P27986 whole entry partner, canonical isoform) above
Method in brief: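 Recombinant human PI3K isoforms incubated 10 min at room temperature with inhibitor and 1.38 μM PIP2 (10 mM MgCl2, 5 mM DTT), then 30 min after adding 400 μM ATP stock. PIP3 formation detected by HTRF (665/620 nm); % inhibition versus blank and enzyme controls gives IC50.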

P110γ = P110γ (Homo sapiens, UniProt P48736); experiment: Fluorescent (HTRF) determination of PI3K enzyme activity, γ isoform; assay type: biochemical
Chain of P110γ (P48736 whole entry, canonical isoform): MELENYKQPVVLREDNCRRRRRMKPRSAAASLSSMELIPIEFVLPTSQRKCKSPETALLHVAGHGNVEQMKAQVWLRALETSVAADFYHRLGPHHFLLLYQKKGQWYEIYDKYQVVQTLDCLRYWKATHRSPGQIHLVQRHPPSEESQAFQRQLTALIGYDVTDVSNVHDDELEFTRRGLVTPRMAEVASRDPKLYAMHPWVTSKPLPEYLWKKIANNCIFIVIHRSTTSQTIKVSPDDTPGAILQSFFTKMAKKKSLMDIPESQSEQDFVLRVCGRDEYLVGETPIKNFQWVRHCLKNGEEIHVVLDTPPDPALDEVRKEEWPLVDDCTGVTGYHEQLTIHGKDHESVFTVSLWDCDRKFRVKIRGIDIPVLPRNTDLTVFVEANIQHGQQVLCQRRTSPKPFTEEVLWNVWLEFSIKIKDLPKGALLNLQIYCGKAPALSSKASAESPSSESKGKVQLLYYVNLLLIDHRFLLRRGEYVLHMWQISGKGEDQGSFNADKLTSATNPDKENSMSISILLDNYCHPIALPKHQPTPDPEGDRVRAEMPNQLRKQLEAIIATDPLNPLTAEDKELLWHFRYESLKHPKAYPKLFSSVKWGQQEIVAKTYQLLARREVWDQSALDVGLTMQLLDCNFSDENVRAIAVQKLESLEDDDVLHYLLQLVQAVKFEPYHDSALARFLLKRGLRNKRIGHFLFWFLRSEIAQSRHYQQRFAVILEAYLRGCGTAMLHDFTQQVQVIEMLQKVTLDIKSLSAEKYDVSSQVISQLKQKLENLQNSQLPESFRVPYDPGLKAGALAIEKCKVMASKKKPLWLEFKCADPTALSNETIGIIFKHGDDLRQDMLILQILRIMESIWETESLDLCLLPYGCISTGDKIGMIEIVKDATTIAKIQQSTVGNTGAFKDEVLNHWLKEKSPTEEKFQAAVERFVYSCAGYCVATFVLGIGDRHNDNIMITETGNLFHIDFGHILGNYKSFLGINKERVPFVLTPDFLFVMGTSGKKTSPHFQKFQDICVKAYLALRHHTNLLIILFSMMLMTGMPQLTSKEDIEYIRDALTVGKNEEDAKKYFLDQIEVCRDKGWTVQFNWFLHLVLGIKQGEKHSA
From the text: as §1, §2, §3

[1] = read-out: P110 δ/ Pi3K δ IC 50 nM
[2] = read-out: P110 δ/Pi3K δ IC 50 nM

Chain of P110 δ/Pi3K δ (O00329 whole entry, canonical isoform): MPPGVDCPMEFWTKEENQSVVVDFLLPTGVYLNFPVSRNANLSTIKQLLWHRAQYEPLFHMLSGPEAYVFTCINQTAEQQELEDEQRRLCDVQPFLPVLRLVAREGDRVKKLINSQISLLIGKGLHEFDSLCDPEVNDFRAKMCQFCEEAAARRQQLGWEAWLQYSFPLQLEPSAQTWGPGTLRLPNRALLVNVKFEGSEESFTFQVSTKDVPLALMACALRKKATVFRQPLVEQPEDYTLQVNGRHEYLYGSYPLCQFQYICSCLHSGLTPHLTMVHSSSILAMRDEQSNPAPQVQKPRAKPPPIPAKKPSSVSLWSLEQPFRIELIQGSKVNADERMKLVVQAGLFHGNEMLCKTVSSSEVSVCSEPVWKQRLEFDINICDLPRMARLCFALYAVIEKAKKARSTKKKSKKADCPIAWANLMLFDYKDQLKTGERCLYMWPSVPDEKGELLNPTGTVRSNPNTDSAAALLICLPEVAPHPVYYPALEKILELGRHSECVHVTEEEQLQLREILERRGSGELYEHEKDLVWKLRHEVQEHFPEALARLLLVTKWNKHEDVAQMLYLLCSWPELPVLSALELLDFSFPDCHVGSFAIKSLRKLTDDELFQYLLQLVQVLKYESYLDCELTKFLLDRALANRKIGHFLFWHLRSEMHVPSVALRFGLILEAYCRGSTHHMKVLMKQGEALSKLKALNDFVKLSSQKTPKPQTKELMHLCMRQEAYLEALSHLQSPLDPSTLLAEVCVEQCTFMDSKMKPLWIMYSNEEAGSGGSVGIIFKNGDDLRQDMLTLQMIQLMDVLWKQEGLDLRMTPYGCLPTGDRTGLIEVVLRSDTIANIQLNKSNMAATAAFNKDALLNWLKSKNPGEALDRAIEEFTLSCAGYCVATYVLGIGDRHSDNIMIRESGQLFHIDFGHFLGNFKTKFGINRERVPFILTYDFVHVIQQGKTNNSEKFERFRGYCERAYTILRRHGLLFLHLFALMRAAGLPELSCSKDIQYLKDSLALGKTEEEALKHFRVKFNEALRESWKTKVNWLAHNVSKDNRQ
Chain of P110 δ/Pi3K δ (P27986 whole entry partner, canonical isoform): as the sequence (P27986 whole entry partner, canonical isoform) above

Row | Compound | IC50 (P110 δ/Pi3K δ; [1]) [nM] | inhibition at 1 µM (P110α) [%] | inhibition at 1 µM (P110β) [%] | inhibition at 1 µM (P110γ) [%] | inhibition at 1 µM (P110 δ/Pi3K δ) [%] | IC50 (P110 δ/Pi3K δ; [2]) [nM] | melting point [°C] | inhibition (P110 δ/Pi3K δ) [%]
1 | Cc1n[nH]c2cc(-c3nn([C@H](C)c4oc5ccccc5c(=O)c4-c4cccc(F)c4)c4ncnc(N)c34)ccc12 (single isomer, unassigned) [Example 128, (+)-2-(1-(4-amino-3-(3-methyl-1H-indazol-6-yl)-1H-pyrazolo[3,4-d]pyrimidin-1-yl)ethyl)-3-(3-fluorophenyl)-4H-chromen-4-one] | < 250 | < 25 | < 25 | 25 to 50 | – | – | – | –
2 | CC(c1oc2ccccc2c(=O)c1-c1cccc(F)c1)n1cnc2c(N)ncnc21 (centres unmarked) [Example 32, 2-(1-(6-Amino-9H-purin-9-yl)ethyl)-3-(3-fluorophenyl)-4H-chromen-4-one] | – | < 25 | < 25 | < 25 | 50 to 100 | < 250 | – | –
3 | CC(c1oc2ccccc2c(=O)c1-c1ccccc1)n1nc(-c2cccc(O)c2)c2c(N)ncnc21 (centres unmarked) [Example 42, 2-(1-(4-Amino-3-(3-hydroxyphenyl)-1H-pyrazolo[3,4-d]pyrimidin-1-yl)ethyl)-3-phenyl-4H-chromen-4-one] | – | < 25 | 25 to 50 | < 25 | 50 to 100 | < 250 | 212 to 216 | –
4 | C[C@H](Nc1ncnc2[nH]cnc12)c1oc2ccccc2c(=O)c1-c1cccc(F)c1 [Example 47, (S)-2-(1-(9H-purin-6-ylamino)ethyl)-3-(3-fluorophenyl)-4H-chromen-4-one] | – | < 25 | 25 to 50 | 25 to 50 | 50 to 100 | < 250 | 135 to 138 | –
5 | COc1cccc(-c2nn(C(C)c3oc4ccccc4c(=O)c3-c3cccc(F)c3)c3ncnc(N)c23)c1 (centres unmarked) [Example 51, 2-(1-(4-amino-3-(3-methoxyphenyl)-1H-pyrazolo[3,4-d]pyrimidin-1-yl)ethyl)-3-(3-fluorophenyl)-4H-chromen-4-one] | – | < 25 | 50 to 100 | < 25 | – | – | – | –
6 | Nc1ncnc2c1c(-c1cccc(O)c1)nn2Cc1oc2ccccc2c(=O)c1-c1ccccc1 [Example 53, 2-((4-Amino-3-(3-hydroxyphenyl)-1H-pyrazolo[3,4-d]pyrimidin-1-yl)methyl)-3-phenyl-4H-chromen-4-one] | – | < 25 | 50 to 100 | < 25 | 50 to 100 | < 250 | 154 to 158 | –
7 | Nc1ncnc2c1c(-c1cccc(O)c1)nn2Cc1oc2ccccc2c(=O)c1-c1cccc(F)c1 [Example 55, 2-((4-amino-3-(3-hydroxyphenyl)-1H-pyrazolo[3,4-d]pyrimidin-1-yl)methyl)-3-(3-fluorophenyl)-4H-chromen-4-one] | – | < 25 | < 25 | 50 to 100 | 50 to 100 | < 250 | 280 to 283 | –
8 | Nc1ncnc2c1c(-c1cc(O)cc(F)c1)nn2Cc1oc2ccccc2c(=O)c1-c1cccc(F)c1 [Example 68, 2-((4-amino-3-(3-fluoro-5-hydroxyphenyl)-1H-pyrazolo[3,4-d]pyrimidin-1-yl)methyl)-3-(3-fluorophenyl)-4H-chromen-4-one] | – | < 25 | 25 to 50 | < 25 | 50 to 100 | < 250 | 235 to 237 | –
9 | Cc1n[nH]c2cc(-c3nn(C(C)c4oc5ccccc5c(=O)c4-c4cccc(F)c4)c4ncnc(N)c34)ccc12 (centres unmarked) [Example 79, 2-(1-(4-amino-3-(3-methyl-1H-indazol-6-yl)-1H-pyrazolo[3,4-d]pyrimidin-1-yl)ethyl)-3-(3-fluorophenyl)-4H-chromen-4-one] | < 250 | < 25 | 25 to 50 | 25 to 50 | – | – | 214 to 217 | 50 to 100
10 | CC(c1oc2ccccc2c(=O)c1-c1cccc(F)c1)n1nc(-c2ccc3c(c2)CCO3)c2c(N)ncnc21 (centres unmarked) [Example 109, 2-(1-(4-amino-3-(2,3-dihydrobenzofuran-5-yl)-1H-pyrazolo[3,4-d]pyrimidin-1-yl)ethyl)-3-(3-fluorophenyl)-4H-chromen-4-one] | – | < 25 | < 25 | 25 to 50 | – | – | 238 to 241 | 50 to 100
11 | Cc1c[nH]c2cc(-c3nn(C(C)c4oc5ccccc5c(=O)c4-c4cccc(F)c4)c4ncnc(N)c34)ccc12 (centres unmarked) [Example 111, 2-(1-(4-amino-3-(3-methyl-1H-indol-6-yl)-1H-pyrazolo[3,4-d]pyrimidin-1-yl)ethyl)-3-(3-fluorophenyl)-4H-chromen-4-one] | – | < 25 | < 25 | 50 to 100 | – | – | 269 to 272 | 50 to 100
12 | CCOc1ccc(-c2nn(C(C)c3oc4ccccc4c(=O)c3-c3cccc(F)c3)c3ncnc(N)c23)cc1F (centres unmarked) [Example 143, 2-(1-(4-amino-3-(4-ethoxy-3-fluorophenyl)-1H-pyrazolo[3,4-d]pyrimidin-1-yl)ethyl)-3-(3-fluorophenyl)-4H-chromen-4-one] | – | – | 25 to 50 | < 25 | – | – | 216 to 218 | < 50
